From article PMC12372887, “Mechanism and cellular actions of the potent AMPK inhibitor BAY-3827” (Science Advances, 2025)

Tests used:
[1] = target: T1, ULK1 (Homo sapiens, UniProt O75385); assay: Cell-free ULK1 kinase assay (S108tide); type: biochemical; conditions: increasing concentrations, 0 to 1 μM
T1 sequence (O75385 1-1050): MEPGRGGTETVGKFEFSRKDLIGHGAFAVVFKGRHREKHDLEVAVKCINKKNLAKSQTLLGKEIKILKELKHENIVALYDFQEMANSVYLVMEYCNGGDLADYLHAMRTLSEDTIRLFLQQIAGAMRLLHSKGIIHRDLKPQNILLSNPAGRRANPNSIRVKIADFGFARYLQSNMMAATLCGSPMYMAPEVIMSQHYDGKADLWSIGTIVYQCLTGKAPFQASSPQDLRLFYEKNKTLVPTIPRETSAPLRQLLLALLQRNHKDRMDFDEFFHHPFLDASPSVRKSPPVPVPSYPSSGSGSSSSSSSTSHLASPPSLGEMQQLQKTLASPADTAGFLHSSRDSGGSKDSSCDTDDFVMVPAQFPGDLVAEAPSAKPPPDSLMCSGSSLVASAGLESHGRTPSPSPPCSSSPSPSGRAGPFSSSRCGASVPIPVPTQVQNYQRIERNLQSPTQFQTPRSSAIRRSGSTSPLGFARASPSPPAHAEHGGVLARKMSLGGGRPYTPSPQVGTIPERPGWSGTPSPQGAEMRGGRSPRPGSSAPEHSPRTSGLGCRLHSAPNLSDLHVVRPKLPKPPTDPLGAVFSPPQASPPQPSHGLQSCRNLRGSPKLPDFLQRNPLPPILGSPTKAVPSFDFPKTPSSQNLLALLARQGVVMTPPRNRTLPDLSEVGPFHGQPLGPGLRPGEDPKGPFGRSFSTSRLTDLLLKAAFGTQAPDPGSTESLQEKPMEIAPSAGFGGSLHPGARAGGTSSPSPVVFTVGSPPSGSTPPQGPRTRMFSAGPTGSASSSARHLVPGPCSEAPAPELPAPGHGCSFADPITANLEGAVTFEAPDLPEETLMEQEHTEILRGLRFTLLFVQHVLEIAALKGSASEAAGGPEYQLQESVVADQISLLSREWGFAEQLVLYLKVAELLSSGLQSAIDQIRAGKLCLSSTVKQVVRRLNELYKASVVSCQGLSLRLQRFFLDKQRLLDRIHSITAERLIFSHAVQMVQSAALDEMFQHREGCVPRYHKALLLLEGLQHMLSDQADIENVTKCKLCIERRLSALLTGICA
Method: (§1) Heterotrimeric human AMPK FLAG- α1β1γ1, FLAG- α2β1γ1, and FLAG- α2β2γ1, as well as human FLAG-CaMKK2 and FLAG-ULK1, were produced in mammalian HEK293 cells as described ([66], [67]). For AMPK expression, the cells were triply transfected at 60% confluency using FuGene HD (Roche Applied Science) and 1 μg of pcDNA3 plasmid expression constructs for AMPK Flag-α1, β1-Myc, β2-Myc, and HA-γ1. For CaMKK2 expression, the cells were transfected with 1 μg of pcDNA3 Flag-CaMKK2 plasmid. For ULK1 expression, the cells were transfected with […] of pcDNA3 FLAG-ULK1 plasmid. After 48 hours, the transfected cells were harvested by rinsing with ice-cold PBS, followed by rapid lysis using 500 μl of lysis buffer. AMPK, CaMKK2, and ULK1 kinase activities were determined by phosphorylation of synthetic peptide substrates: SAMS (HMRSAMSGLHLVKRR), CaMKKtide ([…]), and S108tide. (KLPLTRSHNNFVARRR), respectively. Briefly, recombinant AMPK, CaMKK2, or ULK1 were immunoprecipitated from 10 μg of transfected cultured cell lysate using 10 μl of anti-FLAG M2 agarose beads [50% (v/v)] […] Radioactivity was quantified by liquid scintillation counting. […]

[2] = target: T2, CaMKK2 (Homo sapiens, UniProt Q96RR4); assay: Cell-free CaMKK2 kinase assay (CaMKKtide); type: biochemical; conditions: increasing concentrations, 0 to 1 μM
T2 construct: made in house; host or cells: HEK293 (transient transfection, anti-FLAG immunoprecipitate)
Method: as §1

[3] = test system: pThr172-AMPKα in U2OS cells; assay: HTRF assay of Thr172-AMPKα phosphorylation in U2OS cells; type: cell-based, human; conditions: for EC50: Homo sapiens, U2OS; for AMPK phosphorylation (pThr172): dose response
Method: Human osteosarcoma U2OS WT cells were obtained from John Rouse (MRC Protein Phosphorylation and Ubiquitylation Unit, University of Dundee) and were cultured in DMEM high glucose + GlutaMAX Supplement, pyruvate (Thermo Fisher Scientific, catalog no. 31966-021) containing penicillin G (100 U/ml), streptomycin (100 μg/ml), and 10% (v/v) FBS seeding with 50,000 cells per well in a 50-μl volume in culture 96-well cell culture plates (Corning Incorporated costar, #3599). The next day, the media were changed to 50 μl of serum-free media, and 50 μl of serum-free media containing BAY-3827 or BAY-974 was dispensed and left to incubate at 37°C for 30 min. […] HTRF assays using either phospho-Ser^79-ACC1 kit (Revvity, #64ACCPEG) or phospho-Thr^172-AMPK kit (Revvity, #64AMPKPEG) were performed in triplicate in HTRF 96-well low volume white plates (Revvity, #66PL96001) following manufacturer’s instructions. Sealed plates incubated overnight in darkness conditions were scanned at room temperature in Multimode Plate Reader EnVision (PerkinElmer) machine following HTRF setup recommendations for EnVision (Revvity), equipped with a top mirror LANCE/DELFIA single mirror (#412), a UV2 (TRF) 320 excitation filter (#111), emission filter APC 665 (#205), and second emission filter Europium 615 (#203), with a 2000-μs cycle and 60-μs delay, with the number of flashes set to 100 as well as for the 2nd detector. Results were viewed in EnVision Manager software (version 1.13.3009.1401) where 665/615 ratios were calculated, and data were normalized to control condition as %. All assay ratios between control lysate signal/nonspecific signal were greater than 2 as expected of a successful assay following the manufacturer’s instructions. Data were visualized in GraphPad Prism v10.

T2 sequence (Q96RR4 whole entry): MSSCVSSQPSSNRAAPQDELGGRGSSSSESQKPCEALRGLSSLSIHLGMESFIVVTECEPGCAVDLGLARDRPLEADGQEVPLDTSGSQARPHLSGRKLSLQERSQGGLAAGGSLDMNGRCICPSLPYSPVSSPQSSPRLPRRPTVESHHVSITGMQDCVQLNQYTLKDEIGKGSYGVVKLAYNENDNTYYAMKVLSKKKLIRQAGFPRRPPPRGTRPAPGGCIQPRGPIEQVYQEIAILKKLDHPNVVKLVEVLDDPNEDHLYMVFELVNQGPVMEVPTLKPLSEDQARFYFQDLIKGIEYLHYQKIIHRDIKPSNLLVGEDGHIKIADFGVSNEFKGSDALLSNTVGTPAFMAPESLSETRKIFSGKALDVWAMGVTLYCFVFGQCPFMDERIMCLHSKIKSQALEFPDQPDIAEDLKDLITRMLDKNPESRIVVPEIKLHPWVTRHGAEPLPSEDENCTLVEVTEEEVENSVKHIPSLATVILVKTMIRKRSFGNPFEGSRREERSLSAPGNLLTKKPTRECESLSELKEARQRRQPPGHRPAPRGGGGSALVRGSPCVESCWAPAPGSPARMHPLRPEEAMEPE

SMILES	inhibitory effect on kinase activity [1]	inhibitory effect on kinase activity [2]	EC50 ([3]; + MK-8722 (10 μM)) [nM]	EC50 ([3]; without MK-8722) [nM]	AMPK phosphorylation (pThr172) [3]
CCc1ccccc1C(=O)Nc1n[nH]c2c(C)c(F)c(C3C(C#N)=C(C)N(C)C(C)=C3C#N)cc12 [BAY-3827, N-[5-(3,5-dicyano-1,2,6-trimethyl-4H-pyridin-4-yl)-6-fluoro-7-methyl-1H-indazol-3-yl]-2-ethylbenzamide]	no inhibitory effect	no inhibitory effect	570	1930	dose-dependently increased
CC1=C(C#N)C(c2ccc3c(c2)c(NC(=O)c2ccccc2C)nn3C)C(C#N)=C(C)N1 [BAY-974, N-[5-(3,5-dicyano-2,6-dimethyl-1,4-dihydropyridin-4-yl)-1-methylindazol-3-yl]-2-methylbenzamide]	no inhibitory effect	no inhibitory effect	–	–	not
